Measured values: ChEMBL document CHEMBL1201862, “PubChem BioAssay data set” (2004)
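How tested: cells in 96-well plates exposed to compound for 48 hours at five concentrations. GI50 = concentration required for 50% inhibition of growth.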 Active and inactive are the calls of the source. Cut-off read from the data, not from the text of the source: active = GI50 up to about 1.1 µM and inactive = higher.

Experiments:
Experiment in all cases: NCI tumour cell line growth inhibition, 48 h
HT-29 = system: HT-29
HOP-62 = system: HOP-62
ACHN = system: ACHN
SK-MEL-5 = system: SK-MEL-5
OVCAR-3 = system: OVCAR-3
T47D = system: T47D
U-251 = system: U-251
NCI-H460 = system: NCI-H460
RPMI-8226 = system: RPMI-8226
SNB-19 = system: SNB-19
SN12C = system: SN12C
TK-10 = system: TK-10
MDA-N = system: MDA-N
OVCAR-4 = system: OVCAR-4
EKVX = system: EKVX
CAKI-1 = system: CAKI-1
SK-OV-3 = system: SK-OV-3
Malme-3M = system: Malme-3M
NCI-H226 = system: NCI-H226

Measured: GI50

CC1NC(=O)C2Cc3ccc(O)c(c3)Oc3ccc(cc3)C(O)C(C(=O)N2C)N(C)C(=O)C(C)NC(=O)C(Cc2ccc(O)cc2)N(C)C(=O)C(C)NC1=O (stereo not drawn)
inactive: HT-29 19.2 µM | HOP-62 34.7 µM | ACHN > 100 µM | SK-MEL-5 31.6 µM | OVCAR-3 25.3 µM | T47D 15.9 µM | U-251 9.48 µM | NCI-H460 31.3 µM | RPMI-8226 12 µM | SNB-19 13.8 µM | SN12C > 10 µM | TK-10 > 100 µM | MDA-N 13.1 µM | OVCAR-4 35.1 µM | EKVX 57 µM | CAKI-1 > 100 µM

CO/N=C1\CC(NC(=O)C(F)(F)F)c2ccsc21 (stereo not drawn)
inactive: HT-29 > 100 µM | HOP-62 > 100 µM | SK-MEL-5 > 100 µM | OVCAR-3 > 100 µM | T47D > 100 µM | U-251 > 100 µM | NCI-H460 > 100 µM | SK-OV-3 > 100 µM | SN12C > 100 µM | TK-10 > 100 µM | MDA-N > 100 µM | Malme-3M > 100 µM | OVCAR-4 > 100 µM | EKVX > 100 µM | NCI-H226 > 100 µM | CAKI-1 > 100 µM

CSc1cc(Cl)c(C)cc1S(=O)(=O)NC(=O)NNc1ccc(F)cc1
inactive: HT-29 > 100 µM | HOP-62 > 100 µM | ACHN 66.8 µM | SK-MEL-5 > 100 µM | OVCAR-3 > 100 µM | T47D > 100 µM | U-251 > 100 µM | NCI-H460 > 100 µM | SK-OV-3 > 100 µM | SNB-19 > 100 µM | SN12C > 100 µM | MDA-N > 100 µM | Malme-3M > 100 µM | OVCAR-4 > 100 µM | EKVX > 100 µM | NCI-H226 > 100 µM | CAKI-1 > 100 µM

CCc1ccccc1/N=N/C(=O)NNc1ccccc1CC
inactive: HT-29 24 µM | HOP-62 15.8 µM | ACHN 19.8 µM | SK-MEL-5 15 µM | OVCAR-3 18.7 µM | T47D 6.78 µM | U-251 16.1 µM | NCI-H460 18 µM | RPMI-8226 22.2 µM | SNB-19 25.8 µM | SN12C 18.5 µM | TK-10 22.1 µM | MDA-N 18.3 µM | Malme-3M 17.6 µM | OVCAR-4 24 µM | NCI-H226 17.5 µM | CAKI-1 27.9 µM

CCOC(=O)Cn1c(=O)ccn(COCCO)c1=O
inactive: HT-29 > 100 µM | HOP-62 > 100 µM | ACHN > 100 µM | SK-MEL-5 > 100 µM | OVCAR-3 > 100 µM | T47D > 100 µM | U-251 > 100 µM | NCI-H460 > 100 µM | RPMI-8226 > 100 µM | SNB-19 > 100 µM | SN12C > 100 µM | TK-10 > 100 µM | MDA-N > 100 µM | Malme-3M > 100 µM | OVCAR-4 > 100 µM | EKVX > 100 µM | CAKI-1 > 100 µM
